Test system: HUVEC cells
Assay: Human Umbilical Vein Endothelial Cell (HUVEC) proliferation assay (BrdU incorporation)
Format: cell-based
Details: growth stimulated with VEGF, 72 hrs, read-out: Inhibition of HUVEC proliferation IC50
Method: Human Umbilical Vein Endothelial Cell (HUVEC) Proliferation Assay (BrdU Incorporation) Materials
HUVEC cells and EGM-MV (Endothelial cell growth medium—microvascular) were purchased from Clonetics (San Diego, Calif.). VEGF and bFGF were purchased from R&D Systems (Minneapolis, Minn.). Anti-BrdU antibody was obtained from Chemicon International (Temecula, Calif.).
HUVECs were routinely maintained in EGM-MV medium and were used within passage 7. HUVECs were plated at a density of 2500 cells/well in M199 medium containing 5% FBS (Hyclone) in type I collagen coated plate (Becton Dickinson). The plate was incubated at 37° C. overnight. The medium was removed by aspiration, and test compounds were added to each well in a volume of 0.1 ml/well in serum-free M199 medium. Compound concentrations ranged from 1.5 nM to 30 micromolar. The plate was incubated for 30 min at 37° C. Another 0.1 ml of serum-free M199 medium containing BSA and VEGF (or bFGF) was added to give a final concentration of 0.1% BSA and 10 ng/ml VEGF (0.3 ng/ml bFGF). The plate was incubated at 37° C. for 72 hrs. BrdU was added to each well after the first 48 hrs to give a concentration of 10 micromolar. The colorimetric ELISA assay was performed according to manufacturer's (Roche Molecular Sciences) instructions, with detection by absorbance reading at 450 nm. Results were plotted as concentration of test compound vs. absorbance to give an IC50 value for inhibition of BrdU incorporation.

Row | Compound | IC50 [nM]
1 | COc1ccc(S(=O)(=O)N(C)C)cc1Nc1ncc(-c2cccc(-c3ccccc3)c2)o1 [Example 225, 3-{[5-(1,1′-biphenyl-3-yl)-1,3-oxazol-2-yl]amino}-4-methoxy-N,N-dimethylbenzenesulfonamide] | < 500
2 | CCS(=O)(=O)c1ccc(OC)c(Nc2ncc(-c3ccc(Cl)cc3)o2)c1 [Example 132, 5-(4-chlorophenyl)-N-[5-(ethylsulfonyl)-2-methoxyphenyl]-1,3-oxazol-2-amine] | < 1000
3 | CCS(=O)(=O)c1ccc(OC)c(Nc2ncc(-c3ccc(C(N)=O)cc3)o2)c1 [Example 134] | < 500
4 | COc1ccc(S(N)(=O)=O)cc1Nc1ncc(-c2cccc(-c3ccccc3)c2)o1 [Example 187, 3-{[5-(1,1′-biphenyl-3-yl)-1,3-oxazol-2-yl]amino}-4-methoxybenzenesulfonamide] | < 500
5 | CCS(=O)(=O)c1ccc(OC)c(Nc2ncc(-c3ccc4c(c3)OCCCO4)o2)c1 [Example 153, 5-(3,4-dihydro-2H-1,5-benzodioxepin-7-yl)-N-[5-(ethylsulfonyl)-2-methoxyphenyl]-1,3-oxazol-2-amine] | < 1000
6 | C=Cc1cccc(-c2cnc(Nc3cc(S(=O)(=O)CC)ccc3OC)o2)c1 [Example 175, N-[5-(ethylsulfonyl)-2-methoxyphenyl]-5-(3-vinylphenyl)-1,3-oxazol-2-amine] | < 1000
7 | COc1ccc(S(=O)(=O)NC(C)C)cc1Nc1ncc(-c2cccc(-c3cccnc3)c2)o1 [Example 223, N-isopropyl-4-methoxy-3-{[5-(3-pyridin-3-ylphenyl)-1,3-oxazol-2-yl]amino}benzenesulfonamide] | < 500
8 | COc1ccc(S(=O)(=O)CC(C)C)cc1Nc1ncc(-c2ccc(F)cc2)o1 [Example 93, 5-(4-fluorophenyl)-N-[5-(isobutylsulfonyl)-2-methoxyphenyl]-1,3-oxazol-2-amine] | < 1000
9 | CCNS(=O)(=O)c1ccc(OC)c(Nc2ncc(-c3cccc(-c4ccccn4)c3)o2)c1 [Example 218, N-ethyl-4-methoxy-3-{[5-(3-pyridin-2-ylphenyl)-1,3-oxazol-2-yl]amino}benzenesulfonamide] | < 500
10 | CCS(=O)(=O)c1ccc(OC)c(Nc2ncc(-c3cccc(Br)c3)o2)c1 [Example 100, 5-(3-bromophenyl)-N-[5-(ethylsulfonyl)-2-methoxyphenyl]-1,3-oxazol-2-amine] | < 1000
11 | CCS(=O)(=O)c1ccc(OC)c(Nc2ncc(-c3ccccc3)o2)c1 [Example 56, N-[5-(ethylsulfonyl)-2-methoxyphenyl]-5-phenyl-1,3-oxazol-2-amine] | < 500
12 | CCS(=O)(=O)c1ccc(OC)c(Nc2ncc(-c3cccc(-c4ccccn4)c3)o2)c1 [Example 178, N-[5-(ethylsulfonyl)-2-methoxyphenyl]-5-(3-pyridin-2-ylphenyl)-1,3-oxazol-2-amine] | < 500
13 | COc1ccc(S(=O)(=O)NC(C)C)cc1Nc1ncc(-c2ccc(F)cc2)o1 [Example 123, 3-{[5-(4-fluorophenyl)-1,3-oxazol-2-yl]amino}-N-isopropyl-4-methoxybenzenesulfonamide] | < 1000
14 | CNS(=O)(=O)Cc1ccc(Nc2ncc(-c3ccccc3)o2)cc1 [Example 51, N-methyl-1-{4-[(5-phenyl-1,3-oxazol-2-yl)amino]phenyl}methanesulfonamide] | < 1000
15 | COc1cc(Nc2ncc(-c3cccc(-c4ccccc4)c3)o2)cc(OC)c1OC [Example 199, 5-(1,1′-biphenyl-3-yl)-N-(3,4,5-trimethoxyphenyl)-1,3-oxazol-2-amine] | < 500
16 | COc1ccc(S(=O)(=O)NCc2ccccn2)cc1Nc1ncc(-c2ccc(F)cc2)o1 [Example 86, 3-{[5-(4-fluorophenyl)-1,3-oxazol-2-yl]amino}-4-methoxy-N-(pyridin-2-ylmethyl)benzenesulfonamide] | < 500
17 | COc1ccc(S(=O)(=O)NC2CC2)cc1Nc1ncc(-c2cccc(-c3ccccc3)c2)o1 [Example 226, 3-{[5-(1,1′-biphenyl-3-yl)-1,3-oxazol-2-yl]amino}-N-cyclopropyl-4-methoxybenzenesulfonamide] | < 500
18 | COc1cc(Nc2ncc(-c3ccccc3)o2)cc(OC)c1OC [Example 74, 5-phenyl-N-(3,4,5-trimethoxyphenyl)-1,3-oxazol-2-amine] | < 500

Row | Compound | IC50 [nM]
19 | COc1ccc(S(=O)(=O)NCC2CCCO2)cc1Nc1ncc(-c2ccc(F)cc2)o1 (stereo not drawn) [Example 124, 3-{[5-(4-fluorophenyl)-1,3-oxazol-2-yl]amino}-4-methoxy-N-(tetrahydrofuran-2-ylmethyl)benzenesulfonamide] | < 1000
20 | COc1ccc(S(=O)(=O)C(C)C)cc1Nc1ncc(-c2ccc(F)cc2)o1 [Example 97, 5-(4-fluorophenyl)-N-[5-(isopropylsulfonyl)-2-methoxyphenyl]-1,3-oxazol-2-amine] | < 500
21 | CCS(=O)(=O)c1ccc(OC)c(Nc2ncc(-c3cccc(-c4cccs4)c3)o2)c1 [Example 172, N-[5-(ethylsulfonyl)-2-methoxyphenyl]-5-(3-thien-2-ylphenyl)-1,3-oxazol-2-amine] | < 500
22 | CCS(=O)(=O)c1ccc(OC)c(Nc2ncc(-c3cccc(-c4ccc5c(c4)CCO5)c3)o2)c1 [Example 184, 5-[3-(2,3-dihydro-1-benzofuran-5-yl)phenyl]-N-[5-(ethylsulfonyl)-2-methoxyphenyl]-1,3-oxazol-2-amine] | < 500
23 | CCS(=O)(=O)c1ccc(OC)c(Nc2ncc(-c3cccc(-c4cccc(F)c4)c3)o2)c1 [Example 207, N-[5-(ethylsulfonyl)-2-methoxyphenyl]-5-(3′-fluoro-1,1′-biphenyl-3-yl)-1,3-oxazol-2-amine] | < 500
24 | COc1ccc(S(=O)(=O)NCC2CC2)cc1Nc1ncc(-c2cccc(-c3ccccn3)c2)o1 [Example 221, N-(cyclopropylmethyl)-4-methoxy-3-{[5-(3-pyridin-2-ylphenyl)-1,3-oxazol-2-yl]amino}benzenesulfonamide] | < 1000
25 | COCCCNS(=O)(=O)c1ccc(OC)c(Nc2ncc(-c3ccc(F)cc3)o2)c1 [Example 129, 3-{[5-(4-fluorophenyl)-1,3-oxazol-2-yl]amino}-4-methoxy-N-(3-methoxypropyl)benzenesulfonamide] | < 1000
26 | CCS(=O)(=O)c1ccc(OC)c(Nc2ncc(-c3cccc(OCc4cccc(OC)c4OC)c3)o2)c1 [Example 165, 5-{3-[(2,3-dimethoxybenzyl)oxy]phenyl}-N-[5-(ethylsulfonyl)-2-methoxyphenyl]-1,3-oxazol-2-amine] | < 1000
27 | CCS(=O)(=O)c1ccc(OC)c(Nc2ncc(-c3ccc(F)c(F)c3)o2)c1 [Example 110, 5-(3,4-difluorophenyl)-N-[5-(ethylsulfonyl)-2-methoxyphenyl]-1,3-oxazol-2-amine] | < 1000
28 | CCS(=O)(=O)c1ccc(OC)c(Nc2ncc(-c3cccc(-c4ccsc4)c3)o2)c1 [Example 173, N-[5-(ethylsulfonyl)-2-methoxyphenyl]-5-(3-thien-3-ylphenyl)-1,3-oxazol-2-amine] | < 500
29 | COc1ccc(S(=O)(=O)C2CCOC2)cc1Nc1ncc(-c2ccc(F)cc2)o1 (stereo not drawn) [Example 95, 5-(4-fluorophenyl)-N-[2-methoxy-5-(tetrahydrofuran-3-ylsulfonyl)phenyl]-1,3-oxazol-2-amine] | < 1000
30 | COc1ccc(S(=O)(=O)C(C)c2ccncc2)cc1Nc1ncc(-c2cccc(-c3ccccc3)c2)o1 (stereo not drawn) [Example 196, 5-(1,1′-biphenyl-3-yl)-N-{2-methoxy-5-[(1-pyridin-4-ylethyl)sulfonyl]phenyl}-1,3-oxazol-2-amine] | < 500
31 | CCS(=O)(=O)c1ccc(OC)c(Nc2ncc(-c3cccc(-c4ccc(F)cc4)c3)o2)c1 [Example 183, N-[5-(ethylsulfonyl)-2-methoxyphenyl]-5-(4′-fluoro-1,1′-biphenyl-3-yl)-1,3-oxazol-2-amine] | < 500
32 | COc1ccc(S(=O)(=O)N(C)C)cc1Nc1ncc(-c2ccc(F)cc2)o1 [Example 70, 3-{[5-(4-fluorophenyl)-1,3-oxazol-2-yl]amino}-4-methoxy-N,N-dimethylbenzenesulfonamide] | < 500
33 | COc1ccc(S(=O)(=O)C(C)C)cc1Nc1ncc(-c2cccc(-c3ccccn3)c2)o1 [Example 193, N-[5-(isopropylsulfonyl)-2-methoxyphenyl]-5-(3-pyridin-2-ylphenyl)-1,3-oxazol-2-amine] | < 1000
34 | CCC(CC)S(=O)(=O)c1ccc(OC)c(Nc2ncc(-c3cccc(-c4ccccn4)c3)o2)c1 [Example 192, N-{5-[(1-ethylpropyl)sulfonyl]-2-methoxyphenyl}-5-(3-pyridin-2-ylphenyl)-1,3-oxazol-2-amine] | < 1000
35 | CCS(=O)(=O)c1ccc(OC)c(Nc2ncc(-c3ccc(F)cc3)o2)c1 [Example 109, N-[5-(ethylsulfonyl)-2-methoxyphenyl]-5-(4-fluorophenyl)-1,3-oxazol-2-amine] | < 500
36 | CCS(=O)(=O)c1ccc(OC)c(Nc2ncc(-c3ccc4c(c3)OCCO4)o2)c1 [Example 148, 5-(Z,3-dihydro-1,4-benzodioxin-6-yl)-N-[5-(ethylsulfonyl)-2-methoxyphenyl]-1,3-oxazol-2-amine] | < 1000

From US20070142437A1, “CHEMICAL COMPOUNDS” (priority 2005, published 2007)
